According to patent US10865191B2, “Heterocyclic compounds useful as modulators of TNF alpha” (BRISTOL-MYERS SQUIBB COMPANY, priority 2015, dated 2020):
Like-named read-outs stand apart in the source and are kept apart here.

Biological target: TNFα (Homo sapiens, UniProt P01375)
Experiment: TNF induced HEK-Blue assay (NF-kB-driven secreted alkaline phosphatase reporter)
Type: cell-based
Settings: TNFα 0.5 ng/mL, HEK-Blue-CD40L cells, 18 h
Summary of the method: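 HEK-Blue-CD40L cells (NF-kB-driven SEAP reporter), 20,000/well, added after 30 min pre-incubation of compound (0.004–25 μM final) with TNFα 0.5 ng/mL final at 37 °C; 18 h incubation. SEAP read with QUANTI-Blue at 620 nm; IC50 from 4-parameter logistic fit, normalized to unstimulated and stimulated DMSO controls.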

[1] = read-out: TNF induced HEK-Blue assay IC50 value
[2] = TNF induced HEK-Blue assay IC50 value

TNFα, sequence (P01375 77-233 limits assumed): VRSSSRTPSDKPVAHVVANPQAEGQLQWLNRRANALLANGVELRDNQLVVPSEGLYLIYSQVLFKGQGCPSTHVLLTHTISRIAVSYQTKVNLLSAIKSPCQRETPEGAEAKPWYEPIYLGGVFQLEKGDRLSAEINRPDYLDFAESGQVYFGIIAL

**Q.** Which IC50 [1] does the source give for `C[C@@H](Nc1c(Cl)cnc2ccc(-c3cnc(C(C)(C)O)nc3)cc12)c1cc(-c2cnn(CC(=O)O)c2)ccc1F` [Example 346, (R)-2-(4-(3-(1-((3-chloro-6-(2-(2-hydroxypropan-2-yl)pyrimidin-5-yl)quinolin-4-yl)amino)ethyl)-4-fluorophenyl)-1H-pyrazol-1-yl)acetic acid] here?
**A.** The IC50 was 1000 to 10000 nM.

**Q.** Which IC50 [1] does the source give for `C[C@@H](Nc1c(Cl)cnc2ccc(-c3cnc(C(C)(C)O)nc3)cc12)c1cc(-c2cncs2)ccc1F` [Example 347, (R)-2-(5-(3-chloro-4-((1-(2-fluoro-5-(thiazol-5-yl)phenyl)ethyl)amino)quinolin-6-yl)pyrimidin-2-yl)propan-2-ol] here?
**A.** Its IC50 is under 1000 nM.

**Q.** How did the IC50 [1] turn out when `C[C@@H](Nc1c(Cl)cnc2ccc(-c3cnc(C(C)(C)O)nc3)cc12)c1cc(-c2ccc(N)nc2)ccc1F` [Example 348, (R)-2-(5-(4-((1-(5-(6-aminopyridin-3-yl)-2-fluorophenyl)ethyl)amino)-3-chloroquinolin-6-yl)pyrimidin-2-yl)propan-2-ol] was run?
**A.** The IC50 was under 1000 nM.

**Q.** For `C[C@@H](Nc1c(Cl)cnc2ccc(-c3cnc(C(C)(C)O)nc3)cc12)c1cc(-c2cnn(CC(C)(C)O)c2)ccc1F` [Example 349, (R)-1-(4-(3-(1-((3-chloro-6-(2-(2-hydroxypropan-2-yl)pyrimidin-5-yl)quinolin-4-yl)amino)ethyl)-4-fluorophenyl)-1H-pyrazol-1-yl)-2-methylpropan-2-ol], which IC50 [1] is on record?
**A.** Its IC50 is under 1000 nM.

**Q.** For `C[C@@H](Nc1c(Cl)cnc2ccc(-c3cnc(C(C)(C)O)nc3)cc12)c1cc(-c2ccnc(N)c2)ccc1F` [Example 350, (R)-2-(5-(4-((1-(5-(2-aminopyridin-4-yl)-2-fluorophenyl)ethyl)amino)-3-chloroquinolin-6-yl)pyrimidin-2-yl)propan-2-ol], which IC50 [1] is on record?
**A.** Its IC50 is under 1000 nM.

**Q.** With `Cc1ccc(F)c([C@H](Nc2c(Cl)c(C)nc3ccc(-c4cnc(C(C)(C)O)nc4)cc23)C(F)F)c1` [Example 351, (S)-2-(5-(3-chloro-4-((2,2-difluoro-1-(2-fluoro-5-methylphenyl)ethyl)amino)-2-methylquinolin-6-yl)pyrimidin-2-yl)propan-2-ol] as the molecule, how does the IC50 [1] read?
**A.** Its IC50 is under 1000 nM.

**Q.** With `C=Cc1ccc(F)c([C@H](Nc2c(Cl)c(C)nc3ccc(-c4cnc(C(C)(C)O)nc4)cc23)C(F)F)c1` [Example 352, (S)-2-(5-(3-chloro-4-((2,2-difluoro-1-(2-fluoro-5-vinylphenyl)ethyl)amino)-2-methylquinolin-6-yl)pyrimidin-2-yl)propan-2-ol] as the molecule, how does the IC50 [1] read?
**A.** Its IC50 is under 1000 nM.

**Q.** For `Cc1nc2ccc(-c3cnc(C(C)(C)O)nc3)cc2c(-c2ccccc2-c2ccccc2)c1Cl` [Example 353, 2-(5-(4-([1,1′-biphenyl]-2-yl)-3-chloro-2-methylquinolin-6-yl)pyrimidin-2-yl)propan-2-ol], which IC50 [1] is on record?
**A.** Its IC50 is 1000 to 10000 nM.

**Q.** `COC(=O)N1CCC[C@H]([C@H](C)Nc2c(Cl)cnc3ccc(-c4cnc(C(C)(C)O)nc4)cc23)C1` [Example 354, (S)-methyl 3-((S)-1-((3-chloro-6-(2-(2-hydroxypropan-2-yl)pyrimidin-5-yl)quinolin-4-yl)amino)ethyl)piperidine-1-carboxylate] was tested. Which IC50 [1] did it give?
**A.** The IC50 was under 1000 nM.

**Q.** `Cc1nc2ccc(-c3cnc(C(C)(C)O)nc3)cc2c(N[C@H](C)c2cc(NC(=O)OC(C)(C)C)ccc2F)c1Cl` [Example 359, tert-Butyl (R)-(3-(1-((3-chloro-6-(2-(2-hydroxypropan-2-yl)pyrimidin-5-yl)-2-methylquinolin-4-yl)amino)ethyl)-4-fluorophenyl)carbamate] was tested. Which IC50 [1] did it give?
**A.** Its IC50 is under 1000 nM.

**Q.** Which IC50 [1] does the source give for `Cc1nc2ccc(-c3cnc(C(C)(C)O)nc3)cc2c(N[C@H](C)c2cc(N)ccc2F)c1Cl` [Example 360, (R)-2-(5-(4-((1-(5-amino-2-fluorophenyl)ethyl)amino)-3-chloro-2-methylquinolin-6-yl)pyrimidin-2-yl)propan-2-ol] here?
**A.** Its IC50 is under 1000 nM.

**Q.** `Cc1nc2ccc(-c3cnc(C(C)(C)O)nc3)cc2c(N[C@H](C)c2cc(N3CCCC3=O)ccc2F)c1Cl` [Example 361, (R)-1-(3-(1-((3-chloro-6-(2-(2-hydroxypropan-2-yl)pyrimidin-5-yl)-2-methylquinolin-4-yl)amino)ethyl)-4-fluorophenyl)pyrrolidin-2-one] was tested. Which IC50 [1] did it give?
**A.** The IC50 was under 1000 nM.

**Q.** `C[C@@H](Nc1c(Cl)cnc2ccc(-c3cnc(C(C)(C)O)nc3)cc12)c1cc(N2CCCC2=O)ccc1F` [Example 362, (R)-1-(3-(1-((3-chloro-6-(2-(2-hydroxypropan-2-yl)pyrimidin-5-yl)quinolin-4-yl)amino)ethyl)-4-fluorophenyl)pyrrolidin-2-one] was tested. Which IC50 [1] did it give?
**A.** Its IC50 is under 1000 nM.

**Q.** `C[C@@H](Nc1c(Cl)cnc2ccc(-c3cnc(C(C)(C)O)nc3)cc12)c1cccc(N2CCCC2=O)c1` [Example 363, (R)-1-(3-(1-((3-chloro-6-(2-(2-hydroxypropan-2-yl)pyrimidin-5-yl)quinolin-4-yl)amino)ethyl)phenyl)pyrrolidin-2-one] was tested. Which IC50 [1] did it give?
**A.** Its IC50 is 1000 to 10000 nM.

**Q.** Which IC50 [2] does the source give for `C[C@@H](Nc1c(Cl)cnc2ccc(-c3cnc(C(C)(C)O)nc3)cc12)c1cc(N2CCCC2)ccc1F` [Example 364, (R)-2-(5-(3-chloro-4-((1-(2-fluoro-5-(pyrrolidin-1-yl)phenyl)ethyl)amino)quinolin-6-yl)pyrimidin-2-yl)propan-2-ol] here?
**A.** The IC50 was under 1000 nM.

**Q.** Which IC50 [1] does the source give for `Cc1nc2ccc(-c3cnc(C(C)(C)O)nc3)cc2c(N[C@H](C)c2cc(-n3cccn3)ccc2F)c1Cl` [Example 365, (R)-2-(5-(3-chloro-4-((1-(2-fluoro-5-(1H-pyrazol-1-yl)phenyl)ethyl)amino)-2-methylquinolin-6-yl)pyrimidin-2-yl)propan-2-ol] here?
**A.** The IC50 was under 1000 nM.

**Q.** `C[C@@H](Nc1c(Cl)cnc2ccc(-c3cnc(C(C)(C)O)nc3)cc12)c1cc(-n2cccn2)ccc1F` [Example 366, (R)-2-(5-(3-chloro-4-((1-(2-fluoro-5-(1H-pyrazol-1-yl)phenyl)ethyl)amino)quinolin-6-yl)pyrimidin-2-yl)propan-2-ol] was tested. Which IC50 [1] did it give?
**A.** The IC50 was under 1000 nM.

**Q.** How did the IC50 [1] turn out when `C[C@@H](Nc1c(Cl)cnc2ccc(-c3cnc(C(C)(C)O)nc3)cc12)c1cc(N2CCOC2=O)ccc1F` [Example 367, (R)-3-(3-(1-((3-chloro-6-(2-(2-hydroxypropan-2-yl)pyrimidin-5-yl)quinolin-4-yl)amino)ethyl)-4-fluorophenyl) oxazolidin-2-one] was run?
**A.** The IC50 was under 1000 nM.

**Q.** `C[C@@H](Nc1c(Cl)cnc2ccc(-c3cnc(C(C)(C)O)nc3)cc12)c1cccc(-n2cccn2)c1` [Example 368, (R)-2-(5-(4-((1-(3-(1H-pyrazol-1-yl)phenyl)ethyl)amino)-3-chloroquinolin-6-yl)pyrimidin-2-yl)propan-2-ol] was tested. Which IC50 [1] did it give?
**A.** The IC50 was 10000 to 25000 nM.

**Q.** How did the IC50 [1] turn out when `C[C@@H](Nc1c(Cl)cnc2ccc(-c3cnc(C(C)(C)O)nc3)cc12)c1cc(N2CCOCC2=O)ccc1F` [Example 369, (R)-4-(3-(1-((3-chloro-6-(2-(2-hydroxypropan-2-yl)pyrimidin-5-yl)quinolin-4-yl)amino)ethyl)-4-fluorophenyl) morpholin-3-one] was run?
**A.** Its IC50 is under 1000 nM.

**Q.** How did the IC50 [1] turn out when `C[C@@H](Nc1c(Cl)cnc2ccc(-c3cnc(C(C)(C)O)nc3)cc12)c1cc(N2CCNC2=O)ccc1F` [Example 370, (R)-1-(3-(1-((3-chloro-6-(2-(2-hydroxypropan-2-yl)pyrimidin-5-yl)quinolin-4-yl)amino)ethyl)-4-fluorophenyl)imidazolidin-2-one] was run?
**A.** Its IC50 is under 1000 nM.

**Q.** Which IC50 [1] does the source give for `C[C@@H](Nc1c(Cl)cnc2ccc(-c3cnc(C(C)(C)O)nc3)cc12)c1cc(-n2cnnc2)ccc1F` [Example 371, (R)-2-(5-(3-chloro-4-((1-(2-fluoro-5-(4H-1,2,4-triazol-4-yl)phenyl)ethyl)amino)quinolin-6-yl)pyrimidin-2-yl)propan-2-ol] here?
**A.** The IC50 was under 1000 nM.

**Q.** How did the IC50 [1] turn out when `Cc1nc2ccc(-c3cnc(C(C)(C)O)nc3)cc2c(N[C@@H](c2cc(N3CCNC3=O)ccc2F)C(F)F)c1Cl` [Example 372, (S)-1-(3-(1-((3-chloro-6-(2-(2-hydroxypropan-2-yl)pyrimidin-5-yl)-2-methylquinolin-4-yl)amino)-2,2-difluoroethyl)-4-fluorophenyl) imidazolidin-2-one] was run?
**A.** The IC50 was under 1000 nM.

**Q.** For `Cc1nc2ccc(-c3cnc(C(C)(C)O)nc3)cc2c(N[C@H](C)c2cc(N3CCNC3=O)ccc2F)c1Cl` [Example 373, (R)-1-(3-(1-((3-chloro-6-(2-(2-hydroxypropan-2-yl)pyrimidin-5-yl)-2-methylquinolin-4-yl)amino)ethyl)-4-fluorophenyl)imidazolidin-2-one], which IC50 [1] is on record?
**A.** Its IC50 is under 1000 nM.

**Q.** Which IC50 [2] does the source give for `C[C@@H](Nc1c(Cl)cnc2ccc(-c3cnc(C(C)(C)O)nc3)cc12)c1cc(N)ccc1F` [Example 374, (R)-2-(5-(4-((1-(5-amino-2-fluorophenyl)ethyl)amino)-3-chloroquinolin-6-yl)pyrimidin-2-yl)propan-2-ol] here?
**A.** The IC50 was under 1000 nM.

**Q.** With `Cc1nc2ccc(-c3cnc(C(C)(C)O)nc3)cc2c(N[C@H](C)c2cc(C#N)ccc2F)c1Cl` [Example 375, (R)-3-(1-((3-chloro-6-(2-(2-hydroxypropan-2-yl)pyrimidin-5-yl)-2-methylquinolin-4-yl)amino)ethyl)-4-fluorobenzonitrile] as the molecule, how does the IC50 [1] read?
**A.** The IC50 was under 1000 nM.

**Q.** `C[C@@H](Nc1c(Cl)cnc2ccc(-c3cnc(C(C)(C)O)nc3)cc12)c1cc(C#N)ccc1F` [Example 376, (R)-3-(1-((3-chloro-6-(2-(2-hydroxypropan-2-yl)pyrimidin-5-yl)quinolin-4-yl)amino)ethyl)-4-fluorobenzonitrile] was tested. Which IC50 [2] did it give?
**A.** The IC50 was under 1000 nM.

**Q.** How did the IC50 [1] turn out when `Cc1nc2ccc(-c3cnc(N4CCN(CC(=O)O)CC4)nc3)cc2c(N[C@H](C)c2cc(C#N)ccc2F)c1Cl` [Example 377, (R)-2-(4-(5-(3-chloro-4-((1-(5-cyano-2-fluorophenyl)ethyl)amino)-2-methylquinolin-6-yl)pyrimidin-2-yl)piperazin-1-yl)acetic acid] was run?
**A.** The IC50 was under 1000 nM.

**Q.** Which IC50 [1] does the source give for `Cc1nc2ccc(-c3cnc(C(C)(C)O)nc3)cc2c(N[C@H](c2cc(C#N)ccc2F)C(F)F)c1Cl` [Example 378, (R)-3-(1-((3-chloro-6-(2-(2-hydroxypropan-2-yl)pyrimidin-5-yl)-2-methylquinolin-4-yl)amino)-2,2-difluoroethyl)-4-fluorobenzonitrile] here?
**A.** Its IC50 is 10000 to 25000 nM.
